From patent publication US9017692B2, “Antimicrobial agent, bacterial strain, biosynthesis, and methods of use” (priority 2011, dated 2015)

Legend:
B. cereus ATCC 11178 = assay: Spot-on-lawn antimicrobial activity; assay type: cell-based, Bacillus cereus; details: TSBYE
Experimental: (§1) Spot-on-lawn method [He, Z., et al., Appl. Environ. Microbiol., (2007) 73:168-178] was used for the bioassay of antimicrobial activity. Bacterial indicators were incubated at 37° C. for 24 h, except Pseudomonas putida, Clostridium difficile and methycillin resistant Staphylococcus aureus which were incubated for 48 h (Table 1). The indicator overlay was prepared by pouring 10 ml soft agar (seeded with 10 μL indicator culture) onto tryptose agar as basal medium in a petri dish. Purified antimicrobials were two-fold serially diluted and aliquots (10 μL each) were spotted onto the soft agar. The plates were incubated overnight and inspected for the presence of growth inhibition zones. Antimicrobial activity was expressed in arbitrary units (AU)/mL; this value is the reciprocal of the highest dilution displaying a zone of inhibition corresponding to 1 mL of the non-diluted antimicrobial preparation.
(§2) Purified paenibacterin was used for the antimicrobial spectrum test. Microorganisms tested for sensitivity to this compound included pathogenic (e.g., Salmonella Typhimurium, Escherichia coli O157:H7, Listeria monocytogenes, and Staphylococcus aureus) and non-pathogenic (e.g., Escherichia coli K-12, Pseudomonas putida, and Enterococcus faecalis) bacteria (Table 1).

C. difficile CL148 = assay: Spot-on-lawn antimicrobial activity; assay type: cell-based, Clostridium difficile; details: BHIYE
Experimental: as §1, §2

[1] = tested on: S. aureus (methycillin-resistant); assay: Spot-on-lawn antimicrobial activity; assay type: cell-based, Staphylococcus aureus; details: TSBYE
Experimental: as §1, §2

[2] = tested on: E. coli O157:H7 ATCC 43889; assay: Spot-on-lawn antimicrobial activity; assay type: cell-based, Escherichia coli; details: broth medium LB
Experimental: as §1, §2

E. coli O157:H7 EDL 933 = assay: Spot-on-lawn antimicrobial activity; assay type: cell-based, Escherichia coli; details: broth medium LB
Experimental: as §1, §2

PAE.2281 = assay: MIC, CLSI broth microdilution, Gram-negative clinical isolates; assay type: cell-based, Pseudomonas aeruginosa
Experimental: (§3) Plates were incubated at 35° C. for 24 h.
(§4) The activity of paenibacterin was also tested against clinical isolates of the following Gram-negative bacterial strains: four strains of the species Pseudomonas aeruginosa (PAE), three strains of the species Acinetobacter baumannii (ABA), two strains of the species Escherichia coli (ECO), and four strains of the species Klebsiella pneumoniae (KPN). Particularly, the strains of Gram-negative bacteria included polymyxin B-resistant (PMB-R) and polymyxin B-sensitive (PMB-S) strains of each above listed species. The MICs were determined using the above described CLSI broth microdilution method, in which the method was performed with both non-binding surface coated (NBS) and polystyrene (PS) 96-well plates (Tables 11 and 12, respectively). The MICs were generally lower in the NBS 96-well plates as compared to the PS 96-well plates.

PAE.44 = assay: as above; assay type: cell-based, Pseudomonas aeruginosa
Experimental: as §3, §4

PAE.2325 = assay: as above; assay type: cell-based, Pseudomonas aeruginosa
Experimental: as §3, §4

PAE.999 = assay: as above; assay type: cell-based, Pseudomonas aeruginosa
Experimental: as §3, §4

[3] = Enzyme sensitivity test (residual antimicrobial activity, spot-on-lawn); assay type: physicochemical; details: 10 h
Experimental: Crude extracts of Paenibacillus thiaminolyticus OSY-SE were tested for sensitivity to heat and pH change while purified antimicrobial compounds were used for enzyme sensitivity tests. For thermal stability test, crude extract solutions were exposed to 37° C., 55° C. (in incubators) or 80° C. (in a water bath) for 24 h or autoclaved at 121° C. for 5 minutes. For pH stability test, crude extract solutions were diluted with 25 mM phosphate buffer (pH 7.0) and adjusted to pH 3.0, 5.0 and 9.0, followed by incubation for 12 h. Samples were neutralized to pH 7.0 before the antimicrobial activity test. Enzyme sensitivity tests were performed in 25 mM phosphate buffer (pH 7.0) with trypsin (type I, 12705 U/mg), lipase (type I, 9 U/mg), pronase (6.31 U/mg), α-glucosidase (type I, 100U/1.93 mg), lysozyme (46400 U/mg) and in 25 mM phosphate buffer (pH 8.0) with polymyxin acylase (16 U/mg). All enzymes were purchased from Sigma (St. Louis, Mo.) except polymyxin acylase (Wako Chemicals USA, Inc., Richmond, Va.). Digesting solutions were prepared at concentration of 0.1 mg/mL for polymyxin acylase and 0.5 mg/mL for others. These mixtures of enzyme and antimicrobial compound (40 μL of final volume) were incubated at 37° C. for 10 h. Quantitative spot-on-lawn bioassay was used to measure antimicrobial activities after these treatments.

PMB-S, KPN.2461 = assay: MIC, CLSI broth microdilution, Gram-negative clinical isolates; assay type: cell-based, Klebsiella pneumoniae
Experimental: as §3, §4

KPN.2317 = assay: as above; assay type: cell-based, Klebsiella pneumoniae
Experimental: as §3, §4

PMB-R, KPN.2463 = assay: as above; assay type: cell-based, Klebsiella pneumoniae
Experimental: as §3, §4

KPN.674 = assay: as above; assay type: cell-based, Klebsiella pneumoniae
Experimental: as §3, §4

## paenibacterin
B. cereus ATCC 11178
  Antimicrobial activity (AU/ml): 200 AU/ml
C. difficile CL148
  Antimicrobial activity (AU/ml): 0 AU/ml
C. difficile CL148; listed as Paenibacterin
  Antimicrobial activity (AU/ml): no activity
[1]
  Antimicrobial activity (AU/ml): 100 AU/ml
[2]
  Antimicrobial activity (AU/ml): 1600 AU/ml
E. coli O157:H7 EDL 933
  Antimicrobial activity (AU/ml): 1600 AU/ml
PAE.2281; NBS 96-well plates
  Minimum inhibitory concentration (MIC): 32 to 64 µg/mL
PAE.2281; PS 96-well plates
  Minimum inhibitory concentration (MIC): 64 µg/mL
PAE.44; non-binding surface coated (NBS) 96-well plates
  Minimum inhibitory concentration (MIC): 8 µg/mL
PAE.44; polystyrene (PS) 96-well plates
  Minimum inhibitory concentration (MIC): 64 µg/mL
PAE.2325; NBS 96-well plates
  Minimum inhibitory concentration (MIC): 16 µg/mL
PAE.2325; PS 96-well plates
  Minimum inhibitory concentration (MIC): 64 µg/mL
PAE.999; NBS 96-well plates
  Minimum inhibitory concentration (MIC): 8 µg/mL
PAE.999; PS 96-well plates
  Minimum inhibitory concentration (MIC): 64 µg/mL
[3]; lipase 0.5 mg/mL, pH 7.0, 37° C.
  Antimicrobial activity after enzyme treatment: resistant
[3]; lysozyme 0.5 mg/mL, pH 7.0, 37° C.
  Antimicrobial activity after enzyme treatment: resistant
[3]; polymyxin acylase 0.1 mg/mL, pH 8.0, 37° C.
  Antimicrobial activity after enzyme treatment: activity was lost
[3]; pronase 0.5 mg/mL, pH 7.0, 37° C.
  Antimicrobial activity after enzyme treatment: activity was lost
[3]; trypsin 0.5 mg/mL, phosphate buffer pH 7.0, 37° C.
  Antimicrobial activity after enzyme treatment: resistant
[3]; α-glucosidase 0.5 mg/mL, pH 7.0, 37° C.
  Antimicrobial activity after enzyme treatment: resistant
PMB-S, KPN.2461; KPN.2461 (PMB-S), NBS 96-well plates
  Minimum inhibitory concentration (MIC): 4 µg/mL
PMB-S, KPN.2461; KPN.2461, PS 96-well plates
  Minimum inhibitory concentration (MIC): 32 µg/mL
KPN.2317; NBS 96-well plates
  Minimum inhibitory concentration (MIC): 64 µg/mL
KPN.2317; PS 96-well plates
  Minimum inhibitory concentration (MIC): 64 µg/mL
PMB-R, KPN.2463; KPN.2463 (PMB-R), NBS 96-well plates
  Minimum inhibitory concentration (MIC): 8 µg/mL
PMB-R, KPN.2463; KPN.2463, PS 96-well plates
  Minimum inhibitory concentration (MIC): 32 µg/mL
KPN.674; NBS 96-well plates
  Minimum inhibitory concentration (MIC): 8 µg/mL
KPN.674; PS 96-well plates
  Minimum inhibitory concentration (MIC): 32 µg/mL
